The values that follow come from patent EP2998289B1, “COMPOUNDS FOR TARGETING DRUG DELIVERY AND ENHANCING SIRNA ACTIVITY” (NITTO DENKO CORPORATION, priority 2011, dated 2012).

Assay [1] has as its system gp46. Briefly: pHSC in vitro assay: gp46/HSP47 mRNA knockdown by siRNA formulations, qRT-PCR. The conditions noted are these: for in vitro (pHSC) EC50 or % KD: % KD @ 50 nM, 20:20 HEDC:S104 with 2% conjugate; for in vitro (pHSC) % KD: @ 50 nM, label = cationic lipid of the formulation, 2880 min. For orientation: Real-time PCR tracks product formation cycle by cycle.
Assay [2] deals with gp46. Briefly: in vivo efficacy, rat DMNQ short-term liver damage model (liver gp46 mRNA).
Setting [3] is: @ 0.75 mpk, 20:20 HEDC:S104 with 2% retinoid conjugate.

Turning to `CC1=C(/C=C/C(C)=C/C=C/C(C)=C/C(=O)NCCCC[C@H](NC(=O)/C=C(C)/C=C/C=C(C)/C=C/C2=C(C)CCCC2(C)C)C(=O)NCCCOCCOCCOCCCNC(=O)CCOCCOCCOCCOCCOCCC(=O)NCCCOCCOCCOCCCNC(=O)[C@H](CCCCNC(=O)/C=C(C)/C=C/C=C(C)/C=C/C2=C(C)CCCC2(C)C)NC(=O)/C=C(C)/C=C/C=C(C)/C=C/C2=C(C)CCCC2(C)C)C(C)(C)CCC1` [DiVA, N1,N19-bis((S,23E,25E,27E,29E)-16-((2E,4E,6E,8E)-3,7-dimethyl-9-(2,6,6-trimethylcyclohex-1-en-1-yl)nona-2,4,6,8-tetraenamido)-24,28-dimethyl-15,22-dioxo-30-(2,6,6-trimethylcyclohex-1-en-1-yl)-4,7,10-trioxa-14,21-diazatriaconta-23,25,27,29-tetraen-1-yl)-4,7,10,13,16-pentaoxanonadecane-1,19-diamide], the inhibition at 0.05 µM with gp46 [1] (Rattus norvegicus, read-out: in vitro (pHSC) EC50 or % KD) amounted to 74%. In the assay with gp46 [2] (setting [3]), the “in vivo (rat DMNQ) % KD” value was 60% @ 0.75 mpk.

For `CCCCCCCCCCCCCC(=O)NCCCC[C@@H](NC(=O)CCCCCCCCCCCCC)C(=O)NCCCOCCOCCOCCCNC(=O)CCOCCOCCOCCOCCOCCC(=O)NCCCOCCOCCOCCCNC(=O)[C@@H](CCCCNC(=O)CCCCCCCCCCCCC)NC(=O)CCCCCCCCCCCCC` [Example 4Myr, N1,N19-bis((R)-15,22-dioxo-16-tetradecanamido-4,7,10-trioxa-14,21-diazapenta-triacontyl)-4,7,10,13,16-pentaoxanonadecane-1,19-diamide], the “in vitro (pHSC) EC50 or % KD” value in the assay with gp46 [1] came out at 27% @ 50 nM.

As to `CCCCCCCC/C=C\CCCCCCCC(=O)OCCN(CCOC(=O)CCCCCCC/C=C\CCCCCCCC)C(=O)C[N+](C)(CCO)CCO.[Br-]` [HE2DODC, 2-(bis(2-(oleoyloxy)ethyl)amino)-N,N-bis(2-hydroxyethyl)-N-methyl-2-oxoethanaminium bromide], the “in vitro (pHSC) % KD” value in the assay with gp46 [1] is reported as 78% @ 50 nM.

Take `CCCCCCCCCCCCCC(=O)OCCN(CCOC(=O)CCCCCCCCCCCCC)C(=O)CC[N+](C)(C)CCO.[Br-]` [HE-Et-DC, 3-(bis(2-(tetradecanoyloxy)ethyl)amino)-N-(2-hydroxyethyl)-N,N-dimethyl-3-oxopropan-1-aminium bromide]: in the assay on gp46 [1], the “in vitro (pHSC) % KD” value came out at 70% @ 50 nM.

Regarding `CCCCCCCC/C=C\CCCCCCCC(=O)OCCN(CCOC(=O)CCCCCCC/C=C\CCCCCCCC)C(=O)CC[N+](C)(C)CCO.[Br-]` [HE-Et-DODC, 3-(bis(2-(oleoyloxy)ethyl)amino)-N-(2-hydroxyethyl)-N,N-dimethyl-3-oxopropan-1-aminium bromide], in the assay on gp46 [1], the “in vitro (pHSC) % KD” value is reported as 71% @ 50 nM.

In the case of `CCCCCCCCCCCCCC(=O)OCCN(CCOC(=O)CCCCCCCCCCCCC)C(=O)CCC[N+](C)(C)CCO.[Br-]` [HE-Pr-DC, 4-(bis(2-(tetradecanoyloxy)ethyl)amino)-N-(2-hydroxyethyl)-N,N-dimethyl-4-oxobutan-1-aminium bromide], the “in vitro (pHSC) % KD” value in the assay on gp46 [1] is 47% @ 50 nM.

On to `CCCCCCCC/C=C\CCCCCCCC(=O)OCCN(CCOC(=O)CCCCCCC/C=C\CCCCCCCC)C(=O)CCC[N+](C)(C)CCO.[Br-]` [HE-Pr-DODC, 4-(bis(2-(oleoyloxy)ethyl)amino)-N-(2-hydroxyethyl)-N,N-dimethyl-4-oxobutan-1-aminium bromide], for which the “in vitro (pHSC) % KD” value with gp46 [1] worked out at 75% @ 50 nM.

Take `CCCCCCCCCCCCCC(=O)OCCN(CCOC(=O)CCCCCCCCCCCCC)C(=O)C[N+](C)(C)CCO.[Br-]` [HEDC, 2-(bis(2-(tetradecanoyloxy)ethyl)amino)-N-(2-hydroxyethyl)-N,N-dimethyl-2-oxoethanaminium bromide]: the “in vitro (pHSC) % KD” value in the assay with gp46 [1] worked out at 68% @ 50 nM. Besides, the “in vivo (rat DMNQ) % KD” value with gp46 [2] (@ 0.5 mpk, label = cationic lipid of the formulation) is reported as 52% @ 0.5 mpk.

`CCCCCCCC/C=C\CCCCCCCC(=O)OCCCN(CCCOC(=O)CCCCCCC/C=C\CCCCCCCC)C(=O)C[N+](C)(C)CCO.[Br-]` [Pr-HE-DODC, 2-(bis(3-(oleoyloxy)propyl)amino)-N-(2-hydroxyethyl)-N,N-dimethyl-2-oxoethanaminium bromide]: the “in vitro (pHSC) % KD” value in the assay on gp46 [1] is recorded as 73% @ 50 nM.

Take `CCCCCCCCCCCCCC(=O)OCCCN(CCCOC(=O)CCCCCCCCCCCCC)C(=O)C[N+](C)(C)CCO.[Br-]` [Pr-HEDC, 2-(bis(3-(tetradecanoyloxy)propyl)amino)-N-(2-hydroxyethyl)-N,N-dimethyl-2-oxoethanaminium bromide]: the “in vitro (pHSC) % KD” value in the assay on gp46 [1] is on record as 75% @ 50 nM.

As to “N1,N19-bis((16S)-16-(3,7-dimethyl-9-(2,6,6-trimethylcyclohex-1-en-1-yl)nonanamido)-24,28-dimethyl-15,22-dioxo-30-(2,6,6-trimethylcyclohex-1-en-1-yl)-4,7,10-trioxa-14,21-diazatriacontyl)-4,7,10,13,16-pentaoxanonadecane-1,19-diamide [satDiVA]”, the “in vitro (pHSC) EC50 or % KD” value with gp46 [1] was 73% @ 50 nM. Moreover, the “in vivo (rat DMNQ) % KD” value with gp46 [2] (setting [3]) was determined as 74% @ 0.75 mpk.

For “N1,N19-bis((R)-1,8-dioxo-7-(4-((E)-2-(5,5,8,8-tetramethyl-5,6,7,8-tetrahydro-naphthalen-2-yl)prop-1-en-1-yl)benzamido)-1-(4-((E)-2-(5,5,8,8-tetramethyl-5,6,7,8-tetrahydronaphthalen-2-yl)prop-1-en-1-yl)phenyl)-13,16,19-trioxa-2,9-diazadocosan-22-yl)-4,7,10,13,16-pentaoxanonadecane-1,19-diamide [Example 4TTNPB]”, the “in vitro (pHSC) EC50 or % KD” value in the assay with gp46 [1] is reported as 34% @ 50 nM.
